Results: US10086085B2, “Bifunctional cytotoxic agents” (priority 2014, dated 2018)

Tests used:
[1] = test system: N87 (human gastric carcinoma derived from metastatic liver site); assay: Cytotoxicity assay for payloads (MTS), N87 cells; format: cell-based; details: Homo sapiens, 96 h; N87 cells, incubated with compounds for four days, MTS absorbance 490 nm; read-out: N87 IC50
Description: (§1) Cancer cell lines were obtained from ATCC (Manassas, Va.). N87 (human gastric carcinoma derived from metastatic liver site). HL60 (leukemia), A375 (melanoma) and HUVEC (human umbilical vein endothelial cells). were grown in RPMI 1640 media. All media were supplemented with 10% fetal bovine serum, 1% sodium pyruvate, and 1% L-glutamine (Invitrogen, Grand Island, N.Y.). Human umbilical vein endothelial cells (HUVEC) were obtained from Lonza (Allendale, N.J.) and maintained in EGM2 media supplemented with EGM-2 SingleQuots (Lonza # CC-4176). All cells were maintained in a humidified incubator (37° C., 5% CO2).
(§2) Cells in 100 μl medium were cultured in a 96-well plate. Cancer cell lines treated with the indicated compounds by adding 50 μl of 3× stocks in duplicate at 10 concentrations. Cells were incubated with compounds for four days, then 30 μl of CellTiter® 96 AQueous One MTS Solution (Promega Cat # G3582) was added to the cells, incubated 1.5 hr at 37° C., then absorbance measured at 490 nm on a Victor plate reader (Perkin Elmer, Waltham, Mass.). Relative cell viability was determined as a percentage of untreated control wells. IC50 values were calculated using four parameter logistic model #203 with XLfit v4.2 (IDBS, Guildford, Surry, UK).

HL60 (leukemia) = assay: Cytotoxicity assay for payloads (MTS), HL-60 cells; format: cell-based; details: Homo sapiens, 96 h, incubated with compounds for four days, MTS absorbance 490 nm
Description: as §1, §2

Row | SMILES | IC50 [1] [nM] | IC50 (HL60 (leukemia)) [nM]
1 | NC(CC(=O)N1C[C@H]2C[C@@]23C1=CC(=O)c1ccccc13)CC(=O)N1C[C@H]2C[C@@]23C1=CC(=O)c1ccccc13 [Compound 166, 3-amino-1,5-bis[(1aS,9bR)-5-oxo-1a,2-dihydro-1H-benzo[e]cyclopropa[c]indol-3(5H)-yl]pentane-1,5-dione] | 5.69 | 0.659
2 | CC(=O)Oc1cc2c(c3c(C)c[nH]c13)[C@H](CCl)CN2C(=O)C12CCC(C(=O)N3C[C@@H](CCl)c4c3cc(OC(C)=O)c3[nH]cc(C)c43)(CC1)C2 [Compound 88, bicyclo[2.2.1]heptane-1,4-diylbis[carbonyl(1S)-1-(chloromethyl)-8-methyl-1,6-dihydropyrrolo[3,2-e]indole-3,5(2H)-diyl]diacetate] | 0.502 | 0.022
3 | CC(=O)Oc1cc2c(c3ccccc13)[C@H](CCl)CN2C(=O)CC1(CC(=O)N2C[C@@H](CCl)c3c2cc(OC(C)=O)c2ccccc32)CCCC1 [Compound 157, cyclopentane-1,1-diylbis[(1-oxoethane-2,1-diyl)(1S)-1-(chloromethyl)-1,2-dihydro-3H-benzo[e]indole-3,5-diyl] diacetate] | ≥ 10 | 77.4
4 | CC(=O)Oc1cc2c(c3ccccc13)[C@H](CCl)CN2C(=O)Cc1cc(CC(=O)N2C[C@@H](CCl)c3c2cc(OC(C)=O)c2ccccc32)cc([N+](=O)[O-])c1 [Compound 178, (5-nitrobenzene-1,3-diyl)bis[(1-oxoethane-2,1-diyl)(1S)-1-(chloromethyl)-1,2-dihydro-3H-benzo[e]indole-3,5-diyl] diacetate] | 0.484 | 0.036
5 | CC(=O)Oc1cc2c(c3ccccc13)[C@H](CCl)CN2C(=O)c1nnc(C(=O)N2C[C@@H](CCl)c3c2cc(OC(C)=O)c2ccccc32)s1 [Compound 144, 1,3,4-thiadiazole-2,5-diylbis[carbonyl(1S)-1-(chloromethyl)-1,2-dihydro-3H-benzo[e]indole-3,5-diyl] diacetate] | > 10 | 3
6 | O=C(OCC1c2ccccc2-c2ccccc21)N(CC(=O)N1C[C@@H](CCl)c2c1cc(O)c1ccccc21)CC(=O)N1C[C@@H](CCl)c2c1cc(O)c1ccccc21 [Compound 172, 9H-fluoren-9-ylmethyl bis{2-[(1S)-1-(chloromethyl)-5-hydroxy-1,2-dihydro-3H-benzo[e]indol-3-yl]-2-oxoethyl}carbamate] | 13.8 | 0.474
7 | CC(=O)Oc1cc2c(c3ccccc13)[C@H](CCl)CN2C(=O)C12CCC(C(=O)N3C[C@@H](CCl)c4c3cc(OC(C)=O)c3ccccc43)(CC1)CC2 [Compound 159, bicyclo[2.2.2]octane-1,4-diylbis[carbonyl(1S)-1-(chloromethyl)-1,2-dihydro-3H-benzo[e]indole-3,5-diyl] diacetate] | 2.39 | 0.045
8 | O=C(c1ccc(C(=O)N2C[C@@H](CCl)c3c2cc(OP(=O)(O)O)c2ccccc32)s1)N1C[C@@H](CCl)c2c1cc(O)c1ccccc21 [Compound 171, (1S)-1-(chloromethyl)-3-[(5-{[(1S)-1-(chloromethyl)-5-hydroxy-1,2-dihydro-3H-benzo[e]indol-3-yl]carbonyl}thiophen-2-yl)carbonyl]-2,3-dihydro-1H-benzo[e]indol-5-yl dihydrogen phosphate] | 1.55 | 0.131
9 | O=C(O)[C@H]1O[C@@H](Oc2cc3c(c4ccccc24)[C@H](CCl)CN3C(=O)CC23CC(C(=O)N4C[C@@H](CCl)c5c4cc(O)c4ccccc54)(C2)C3)[C@H](O)[C@@H](O)[C@@H]1O [Compound 179, (1S)-1-(chloromethyl)-3-[(3-{[(1S)-1-(chloromethyl)-5-hydroxy-1,2-dihydro-3H-benzo[e]indol-3-yl]carbonyl}bicyclo[1.1.1]pent-1-yl)acetyl]-2,3-dihydro-1H-benzo[e]indol-5-yl beta-D-glucopyranosiduronic acid] | 173 | 14.3
10 | N[C@@H](CCC(=O)N1C[C@H]2C[C@@]23C1=CC(=O)c1ccccc13)C(=O)N1C[C@H]2C[C@@]23C1=CC(=O)c1ccccc13 [Compound 167, (2S)-2-amino-1,5-bis[(1aS,9bR)-5-oxo-1a,2-dihydro-1H-benzo[e]cyclopropa[c]indol-3(5H)-yl]pentane-1,5-dione] | ≥ 10 | 1.45
11 | CC(=O)Oc1cc2c(c3ccccc13)[C@H](CCl)CN2C(=O)C12CC(CC(=O)N3C[C@@H](CCl)c4c3cc(O)c3ccccc43)(C1)C2 [Compound 162, (1S)-1-(chloromethyl)-3-[(3-{2-[(1S)-1-(chloromethyl)-5-hydroxy-1,2-dihydro-3H-benzo[e]indol-3-yl]-2-oxoethyl}bicyclo[1.1.1]pent-1-yl)carbonyl]-2,3-dihydro-1H-benzo[e]indol-5-yl acetate] | 0.749 | 0.02
12 | CC(=O)Oc1cc2c(c3ccccc13)[C@H](CCl)CN2C(=O)Cc1cccc(CC(=O)N2C[C@@H](CCl)c3c2cc(OC(C)=O)c2ccccc32)c1 [Compound 177, benzene-1,3-diylbis[(1-oxoethane-2,1-diyl)(1S)-1-(chloromethyl)-1,2-dihydro-3H-benzo[e]indole-3,5-diyl] diacetate] | 2.12 | 0.196
13 | CC(=O)Nc1ccc2c(OC(C)=O)cc3c(c2c1)[C@@H](CCl)CN3C(=O)C12CC(C(=O)N3C[C@@H](CCl)c4c3cc(OC(C)=O)c3ccccc43)(C1)C2 [Compound 108, (1R)-8-(acetylamino)-3-[(3-{[(1S)-5-(acetyloxy)-1-(chloromethyl)-1,2-dihydro-3H-benzo[e]indol-3-yl]carbonyl}bicyclo[1.1.1]pent-1-yl)carbonyl]-1-(chloromethyl)-1,2-dihydro-3H-benzo[e]indol-5-yl acetate] | 3.98 | 0.431
14 | CC(=O)Oc1cc2c(c3ccccc13)[C@H](CCl)CN2C(=O)c1ccc(C(=O)N2C[C@@H](CCl)c3c2cc(OC(C)=O)c2ccccc32)cc1 [Compound 176, benzene-1,4-diylbis[carbonyl(1S)-1-(chloromethyl)-1,2-dihydro-3H-benzo[e]indole-3,5-diyl] diacetate] | 26.4 | 0.199
15 | O=C(c1ccc(C(=O)N2C[C@@H](CCl)c3c2cc(O)c2ccccc32)[nH]1)N1C[C@@H](CCl)c2c1cc(O)c1ccccc21 [Compound 32, (S)-(1H-pyrrole-2,5-diyl)bis(((S)-1-(chloromethyl)-5-hydroxy-1H-benzo[e]indol-3(2H)-yl)methanone)] | 0.052 | 0.005
16 | CC(=O)Oc1cc2c(c3ccccc13)[C@H](CCl)CN2C(=O)c1cc(C(=O)N2C[C@@H](CCl)c3c2cc(OC(C)=O)c2ccccc32)n(C)n1 [Compound 74, acetic acid (S)-3-[5-((S)-5-acetoxy-1-chloromethyl-1,2-dihydro-benzo[e]indole-3-carbonyl)-1-methyl-1H-pyrazole-3-carbonyl]-1-chloromethyl-2,3-dihydro-1H-benzo[e]indol-5-yl ester] | 76.5 | 7.49
17 | Cc1c[nH]c2c(O)cc3c(c12)[C@H](CCl)CN3C(=O)CNCC(=O)N1C[C@@H](CCl)c2c1cc(O)c1[nH]cc(C)c21 [Compound 165, 2,2′-iminobis{1-[(1S)-1-(chloromethyl)-5-hydroxy-8-methyl-1,6-dihydropyrrolo[3,2-e]indol-3(2H)-yl]ethanone}] | 8.26 | 0.107
18 | O=C(c1cccc(C(=O)N2C[C@@H](CCl)c3c2cc(O)c2ccccc32)n1)N1C[C@@H](CCl)c2c1cc(O)c1ccccc21 [Compound 18, (S)-pyridine-2,6-diylbis(((S)-1-(chloromethyl)-5-hydroxy-1H-benzo[e]indol-3(2H)-yl)methanone)] | 174 | 2.19
19 | O=C([C@@H]1CNC[C@H](C(=O)N2C[C@@H](CCl)c3c2cc(O)c2ccccc32)C1)N1C[C@@H](CCl)c2c1cc(O)c1ccccc21 [Compound 174, (3R,5S)-piperidine-3,5-diylbis{[(1S)-1-(chloromethyl)-5-hydroxy-1,2-dihydro-3H-benzo[e]indol-3-yl]methanone}] | 87.9 | 1.97
20 | Cc1c[nH]c2c(O)cc3c(c12)[C@H](CCl)CN3C(=O)C12CC(C(=O)N3C[C@@H](CCl)c4c3cc(O)c3[nH]cc(C)c43)(C1)C2 [Compound 147, bicyclo[1.1.1]pentane-1,3-diylbis{[(1S)-1-(chloromethyl)-5-hydroxy-8-methyl-1,6-dihydropyrrolo[3,2-e]indol-3(2H)-yl]methanone}] | 0.017 | 0.003
21 | Cc1c[nH]c2c(O)cc3c(c12)[C@H](CCl)CN3C(=O)CN(CC(=O)N1C[C@@H](CCl)c2c1cc(O)c1[nH]cc(C)c21)C(=O)OCC1c2ccccc2-c2ccccc21 [Compound 169, 9H-fluoren-9-ylmethyl bis{2-[(1S)-1-(chloromethyl)-5-hydroxy-8-methyl-1,6-dihydropyrrolo[3,2-e]indol-3(2H)-yl]-2-oxoethyl}carbamate] | 9.82 | 0.388
